# Data reported in patent US20240293416A1, “TREATMENT OF LIVER DISORDERS WITH A THR-ß AGONIST” (Terns Pharmaceuticals, Inc., priority 2021, published 2024).
# “Also recorded” adds a separate entry of the source.
# Assays:
# P-gp = P-gp (Homo sapiens, UniProt P08183); assay: In vitro transporter inhibition, P-gp; type: in vitro ADME
# [1] = Single ascending dose trial: adverse event and safety monitoring; type: in vivo, human
# Experimental: (§1) A single-ascending dose clinical trial of Compound 1 (potassium salt) was performed.
# [2] = Single ascending dose trial: plasma and urine pharmacokinetics; type: in vivo, human; conditions: for fe (fraction of dose excreted in urine as unmodified Compound 1): fasted, n = 6, mean (% CV)
# Experimental: as §1
# (§2) PK parameters were estimated via noncompartmental methods using Phoenix WinNonlink (Certara, LP, Princeton, NJ). Concentrations of serum pharmacodynamic (PD) biomarkers apolipoprotein B (Apo B) and sex hormone binding globulin (SHBG) were measured using an immunoassay and serum lipids were determined using spectrophotometry.
# [3] = system: SHBG, Apo B and serum lipids; assay: Single ascending dose trial: serum PD biomarkers; type: in vivo, human; conditions: for Apo B Change / SHBG Change: n = 6
# Experimental: as §1, §2
# PD sampling was performed pre-dose, and 48 hours and 72 hours post-dose. Percent change from baseline for PD markers were calculated using an ANCOVA model with percent change from baseline as dependent variable, treatment group as fixed effect, and baseline as covariate. Analyses used observed data only without imputation for missing data.
# [4] = Multiple ascending dose trial: adverse event and safety monitoring; type: in vivo, human; conditions: for AEs by relationship to drug: Not related / AEs by relationship to drug: Possibly related / AEs by relationship to drug: Related / AEs by relationship to drug: Unlikely related / Any AE, all CTCAE grades / Grade 1 / Grade 2 or higher / Serious AEs: N = 6
# Experimental: (§3) A multiple-ascending dose clinical trial of Compound 1 was performed.
# [5] = Multiple ascending dose trial: pharmacokinetics; type: in vivo, human
# Experimental: as §3
# as §2, with “(See Table 5, FIG. 7.) PK” for “PK”, “Phoenix® WinNonlin®” for “Phoenix WinNonlink”
# [6] = system: SHBG, Apo B and serum lipids; assay: Multiple ascending dose trial: serum PD biomarkers; type: in vivo, human
# Experimental: as §3
# as §2, with “(See Table 5, FIG. 7.) PK” for “PK”, “Phoenix® WinNonlin®” for “Phoenix WinNonlink”
# PD sampling was also performed. Percent change from baseline for PD markers were calculated using an ANCOVA model with percent change from baseline as dependent variable, treatment group as fixed effect, and baseline as covariate. Analyses used observed data only without imputation for missing data.
# [7] = pH and solubilizer effect on solubility; type: physicochemical
# Experimental: Solubility of Compound 1 (potassium salt) was evaluated at various pH levels.
# [8] = Multiple ascending doses in healthy subjects with elevated LDL-c: PK; type: in vivo, human; conditions: 1, 3, 6 or 10 mg once daily for 14 days
# Source text: (§4) Secondary Objectives: Evaluate the PK and PD of Compound 1 in healthy subjects with elevated LDL-c following multiple ascending doses of Compound 1.
# [9] = system: SHBG, LDL-c and other lipid parameters; assay: Multiple ascending doses in healthy subjects with elevated LDL-c: PD markers; type: in vivo, human; conditions: 1, 3, 6 or 10 mg once daily for 14 days
# Source text: as §4
# [10] = Capsule stability studies under stressed conditions; type: physicochemical
# Experimental: A direct encapsulation (DE) formulation study of Compound 1 was carried out. This work included DE process development for the preparation of 1 mg, 3 mg, 10 mg, 50 mg and placebo capsules by a semi-automatic or automatic capsule filling machine. Ingredients, ratios, filling weight, flowability and uniformity of the formulation were all evaluated. The developed processes are suitable for the manufacture of Compound 1 drug products for future clinical studies.
# Silica gel desiccant was subsequently proposed for the packaging and proven to be effective to mitigate the formation of the impurity.
# The effectiveness of the silica gel desiccant in minimizing the degradation was evaluated through comparative stability studies with or without desiccant included in the primary packaging. […] Therefore, packaging with 1 g desiccant was determined to improve product quality and increase product shelf life.
# [11] = Solubilizer compatibility in formulation study; type: physicochemical; conditions: co-formulation
# Source text: The level of SLS between 1.5% to 5.0% w/w was investigated.
# BCS classification = type: physicochemical
# [12] = 14-day daily dosing up to 10 mg
# Chain of P-gp (P08183 whole entry): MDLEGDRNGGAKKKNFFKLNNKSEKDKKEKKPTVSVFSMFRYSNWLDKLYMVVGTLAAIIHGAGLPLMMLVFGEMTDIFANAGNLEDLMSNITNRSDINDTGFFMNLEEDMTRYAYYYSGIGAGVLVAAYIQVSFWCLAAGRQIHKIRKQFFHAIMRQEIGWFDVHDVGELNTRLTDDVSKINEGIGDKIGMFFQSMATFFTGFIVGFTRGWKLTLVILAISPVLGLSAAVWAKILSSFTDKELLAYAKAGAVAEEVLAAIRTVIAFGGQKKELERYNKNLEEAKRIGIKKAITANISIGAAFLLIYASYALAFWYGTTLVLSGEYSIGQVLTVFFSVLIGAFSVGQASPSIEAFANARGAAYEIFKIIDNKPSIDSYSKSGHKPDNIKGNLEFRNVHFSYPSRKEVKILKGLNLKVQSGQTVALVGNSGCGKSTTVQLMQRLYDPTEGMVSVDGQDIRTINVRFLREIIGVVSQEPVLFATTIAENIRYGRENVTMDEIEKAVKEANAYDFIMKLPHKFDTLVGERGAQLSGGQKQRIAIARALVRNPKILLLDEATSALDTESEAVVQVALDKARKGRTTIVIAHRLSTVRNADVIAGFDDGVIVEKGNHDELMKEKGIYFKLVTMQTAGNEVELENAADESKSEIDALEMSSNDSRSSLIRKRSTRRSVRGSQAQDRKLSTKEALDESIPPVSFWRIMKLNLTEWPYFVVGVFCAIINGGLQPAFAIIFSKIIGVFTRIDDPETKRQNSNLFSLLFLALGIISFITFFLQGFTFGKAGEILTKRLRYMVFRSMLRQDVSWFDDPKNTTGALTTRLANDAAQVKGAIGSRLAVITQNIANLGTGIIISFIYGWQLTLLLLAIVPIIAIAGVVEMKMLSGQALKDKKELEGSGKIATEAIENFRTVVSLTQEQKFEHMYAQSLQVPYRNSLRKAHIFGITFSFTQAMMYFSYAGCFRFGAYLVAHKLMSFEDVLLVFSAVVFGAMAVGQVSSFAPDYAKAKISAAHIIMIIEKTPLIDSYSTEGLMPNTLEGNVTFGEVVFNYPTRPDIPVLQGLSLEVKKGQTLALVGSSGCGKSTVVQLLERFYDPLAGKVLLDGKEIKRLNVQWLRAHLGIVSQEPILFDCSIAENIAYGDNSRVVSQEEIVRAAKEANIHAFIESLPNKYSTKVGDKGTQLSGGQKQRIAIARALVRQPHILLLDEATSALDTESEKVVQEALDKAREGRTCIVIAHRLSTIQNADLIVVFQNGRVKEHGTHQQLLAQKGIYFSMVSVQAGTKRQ
smiles,measurement,setting,value
Cn1cc(C(=O)O)c2ccc(C3CCC(OCc4c(-c5c(Cl)cccc5Cl)noc4C4CC4)CC3)cc21 (centres unmarked) [Compound 2],IC50,P-gp,3.92 µM
"N#Cc1nn(-c2cc(Cl)c(Oc3n[nH]c(=O)c4ccccc34)c(Cl)c2)c(=O)[nH]c1=O [Compound 1, 2-(3,5-dichloro-4-((4-oxo-3,4-dihydrophthalazin-1-yl)oxy)phenyl)-3,5-dioxo-2,3,4,5-tetrahydro-1,2,4-triazine-6-nitrile]",Heart rates,[1]; 24 hours after single dose,remained stable and within the normal range
same,plasma AUC0-∞ without any significant side effects,[1]; single ascending dose studies,"≤ 50,000 ng*hg/mL"
same,overall safety and tolerability,[1]; single ascending doses up to 60 mg,overall safe and well-tolerated
same,"TSH, free T3, and free T4 levels",[1]; single doses 3-60 mg,remained within the normal range
same,bilirubin levels above the normal range,[1]; single doses 3-60 mg,no subjects
same,"cardiac biomarkers (troponin I, CK-MB) or other clinical safety tests",[1]; single doses 3-60 mg,no notable changes
same,"cardiac related AEs (e.g., tachycardia, arrythmias)",[1]; single doses 3-60 mg,No cardiac related AEs
same,increases in ALT more than 2-times ULN,[1]; single doses 3-60 mg,No subjects
same,severity of adverse events,[1]; single doses 3-60 mg,mild or moderate in severity
same,vital signs or ECG parameters,[1]; single doses 3-60 mg,no remarkable changes
same,renal excretion,[2]; all single doses,Minimal renal excretion
same,fe (fraction of dose excreted in urine as unmodified Compound 1),[2]; single 3 mg dose,"2.95 (62) % dose, urine"
same,fe (fraction of dose excreted in urine as unmodified Compound 1),[2]; single 10 mg dose,"2.05 (74) % dose, urine"
same,fe (fraction of dose excreted in urine as unmodified Compound 1),[2]; single 30 mg dose,"1.78 (35) % dose, urine"
same,fe (fraction of dose excreted in urine as unmodified Compound 1),[2]; single 60 mg dose,"1.53 (53) % dose, urine"
same,"dose proportionality of exposures (AUC, Cmax)",[2]; single doses 3-60 mg,approximately dose-proportional; also recorded: linear and dose-proportional plasma exposures with low variability
same,Apo B Change,[3]; Day 3 after single 3 mg dose,−1.5%
same,SHBG Change,[3]; Day 3 after single 3 mg dose,0.20 nmol/L
same,Apo B Change,[3]; Day 3 after single 10 mg dose,−5.6%
same,SHBG Change,[3]; Day 3 after single 30 mg dose,6.0 nmol/L
same,"LDL-c, total cholesterol, and Apo-B","[3]; Day 3 following single dose, similar on Day 4",Dose-dependent decreases
same,triglyceride levels,[3]; after a single dose,No significant changes
same,SHBG relative to placebo,[3]; single doses of ≥10 mg,Significant increases
same,AEs by relationship to drug: Not related,[4]; 3 mg once daily for 14 days,1 (16.7%) n (%)
same,AEs by relationship to drug: Possibly related,[4]; 3 mg once daily for 14 days,0 n (%)
same,AEs by relationship to drug: Related,[4]; 3 mg once daily for 14 days,0 n (%)
same,AEs by relationship to drug: Unlikely related,[4]; 3 mg once daily for 14 days,0 n (%)
same,"Any AE, all CTCAE grades",[4]; 3 mg once daily for 14 days,1 (16.7%) n (%)
same,Grade 1,[4]; 3 mg once daily for 14 days,1 (16.7%) n (%)
same,Grade 2 or higher,[4]; 3 mg once daily for 14 days,0 n (%)
same,Serious AEs,[4]; 3 mg once daily for 14 days,0 n (%)
same,AEs by relationship to drug: Not related,[4]; 6 mg once daily for 14 days,0 n (%)
same,AEs by relationship to drug: Possibly related,[4]; 6 mg once daily for 14 days,1 (16.7%) n (%)
same,AEs by relationship to drug: Related,[4]; 6 mg once daily for 14 days,0 n (%)
same,AEs by relationship to drug: Unlikely related,[4]; 6 mg once daily for 14 days,0 n (%)
same,"Any AE, all CTCAE grades",[4]; 6 mg once daily for 14 days,1 (16.7%) n (%)
same,Grade 1,[4]; 6 mg once daily for 14 days,1 (16.7%) n (%)
same,Grade 2 or higher,[4]; 6 mg once daily for 14 days,0 n (%)
same,Serious AEs,[4]; 6 mg once daily for 14 days,0 n (%)
same,AEs by relationship to drug: Not related,[4]; 10 mg once daily for 14 days,2 (33.3%) n (%)
same,AEs by relationship to drug: Possibly related,[4]; 10 mg once daily for 14 days,0 n (%)
same,AEs by relationship to drug: Related,[4]; 10 mg once daily for 14 days,0 n (%)
same,AEs by relationship to drug: Unlikely related,[4]; 10 mg once daily for 14 days,0 n (%)
same,"Any AE, all CTCAE grades",[4]; 10 mg once daily for 14 days,2 (33.3%) n (%)
same,Grade 1,[4]; 10 mg once daily for 14 days,2 (33.3%) n (%)
same,Grade 2 or higher,[4]; 10 mg once daily for 14 days,0 n (%)
same,Serious AEs,[4]; 10 mg once daily for 14 days,0 n (%)
same,ALT increase to ≥2×ULN,[4]; 14-day daily dosing,no treated subject
same,"ECGs, cardiac biomarkers, or other clinical lab tests",[4]; 14-day daily dosing,No remarkable changes
same,TSH or free T3,[4]; 14-day daily dosing,without clear change
same,free T4,[4]; 14-day daily dosing,declined in dose-dependent fashion
same,free testosterone,[4]; 14-day daily dosing,no significant change in free levels
same,total testosterone,[4]; 14-day daily dosing,Dose-dependent total testosterone increases
same,Heart rate and blood pressure,[4]; [12],remained stable throughout the study
same,grade of AEs,[4]; [12],Grade 1
same,tolerability,[4]; [12],overall well-tolerated
same,GGT,"[4]; 14-day daily dosing, values remaining below ULN",Dose-dependent GGT increases
same,t1/2,"[5]; Day 14, 6 mg QD, N = 6, median",15.8 h
same,oral bioavailability and PK variability,[5]; multiple doses,good oral bioavailability with low PK variability
same,"total cholesterol, LDL-c, Apo B, and triglycerides",[6]; all dose levels,Reductions
same,HDL-c,[6]; day 15,did not significantly change
same,"total cholesterol, LDL-c, Apo B, and triglycerides","[6]; day 15, 10 mg dose cohort",significant reductions
same,SHBG,"[6]; multiple doses, even at 3 mg QD",significant and dose-dependent increases
same,aqueous solubility,[7]; even in the salt form,very low aqueous solubility
same,Solubility,"[7]; pH 10.0 buffer, 24 h, with 2 wt % SLS, 25° C., potassium salt",308.2 µg/mL
same,PK dose proportionality and variability,[8],dose-proportional PK with low variability
same,SHBG,[9],increased
same,"circulating atherogenic lipid levels including LDL-c, Apo B, total cholesterol, and triglycerides",[9],significant decreases
same,capsule short stability,"[10]; 3 mg strength capsule, 60° C./75% RH, two weeks",a degradation impurity formed
same,effect of desiccant packaging on degradation impurities,"[10]; 1, 3, 10 and 50 mg capsules, 40° C./75% RH",significantly retarded the formation of degradation impurities
same,compatibility with sodium lauryl sulfate (SLS),[11],good compatibility; also recorded: minimal or no degradation
same,"effect of ionic surfactants (e.g., SLS) on solubility",[11],increased the aqueous solubility; also recorded: dramatic enhancement of solubility at all pH levels
same,BCS classification,BCS classification,BCS Class IV
